Assay results taken from patent publication US20140024527A1, “HERBICIDAL PYRAZINONES” (E I DU DE NEMOURS AND COMPANY, priority 2011, published 2014).

Columns and labels:
Format in all cases: in vivo
[1] = test system: ducksalad (Heteranthera limosa); assay: Test B flooded paddy test; details: Flood, scale 0 to 100
Source text: (§1) Plant species in the flooded paddy test consisted of rice (Oryza sativa), umbrella sedge (Cyperus difformis), ducksalad (Heteranthera limosa) and barnyardgrass (Echinochloa crus-galli) grown to the 2-leaf stage for testing. At time of treatment, test pots were flooded to 3 cm above the soil surface, treated by application of test compounds directly to the paddy water, and then maintained at that water depth for the duration of the test. Treated plants and controls were maintained in a greenhouse for 13 to 15 days, after which time all species were compared to controls and visually evaluated. Plant response ratings, summarized in Table B, are based on a scale of 0 to 100 where 0 is no effect and 100 is complete control. A dash (-) response means no test result.

[2] = test system: rice (Oryza sativa); assay: Test B flooded paddy test; details: Flood, scale 0 to 100
Source text: as §1

[3] = test system: umbrella sedge (Cyperus difformis); assay: Test B flooded paddy test; details: Flood, scale 0 to 100
Source text: as §1

[4] = test system: barnyardgrass (Echinochloa crus-galli); assay: Test B flooded paddy test; details: Flood
Source text: as §1

[5] = test system: woolly cupgrass (Eriochloa villosa); assay: Test B postemergence; details: scale 0 to 100
Source text: (§2) Seeds of plant species selected from blackgrass (Alopecurus myosuroides), downy bromegrass (Bromus tectorum), green foxtail (Setaria viridis), Italian ryegrass (Lolium multiflorum), wheat (Triticum aestivum), wild oat (Avena fatua), galium (Galium aparine), bermudagrass (Cynodon dactylon), Surinam grass (Brachiaria decumbens), cocklebur (Xanthium strumarium), corn (Zea mays), large crabgrass (Digitaria sanguinalis), woolly cupgrass (Eriochloa villosa), giant foxtail (Setaria faberii), goosegrass (Eleusine indica), johnsongrass (Sorghum halepense), kochia (Kochia scoparia), lambsquarters (Chenopodium album), morningglory (Ipomoea coccinea), yellow nutsedge (Cyperus esculentus), pigweed (Amaranthus retroflexus), ragweed (Ambrosia elatior), soybean (Glycine max), velvetleaf (Abutilon theophrasti), barley (Hordeum vulgare), canarygrass (Phalaris minor), chickweed (Stellaria media), deadnettle (Lamium amplexicaule) and windgrass (Apera spica-venti) were planted in pots containing Redi-Earth® planting medium (Scotts Company, Marysville, Ohio, USA) comprising spaghnum peat moss, vermiculite, wetting agent and starter nutrients and treated postemergence with test compounds formulated in a non-phytotoxic solvent mixture which included a surfactant. Plants ranged in height from 2 to 18 cm (1- to 4-leaf stage).
(§3) Treated plants and controls were maintained in a greenhouse for 13 to 15 days, after which time all species were compared to controls and visually evaluated. Plant response ratings, summarized in Table B, are based on a scale of 0 to 100 where 0 is no effect and 100 is complete control. A dash (-) response means no test result.

[6] = test system: bermudagrass (Cynodon dactylon); assay: Test B postemergence; details: scale 0 to 100
Source text: as §2, §3

[7] = test system: chickweed (Stellaria media); assay: Test B postemergence; details: scale 0 to 100
Source text: as §2, §3

[8] = test system: lambsquarters (Chenopodium album); assay: Test B postemergence; details: scale 0 to 100
Source text: as §2, §3

[9] = test system: johnsongrass (Sorghum halepense); assay: Test B postemergence; details: scale 0 to 100
Source text: as §2, §3

[10] = test system: ragweed (Ambrosia elatior); assay: Test B postemergence; details: scale 0 to 100
Source text: as §2, §3

[11] = test system: kochia (Kochia scoparia); assay: Test B postemergence; details: scale 0 to 100
Source text: as §2, §3

[12] = test system: Surinam grass (Brachiaria decumbens); assay: Test B postemergence; details: scale 0 to 100
Source text: as §2, §3

[13] = test system: downy bromegrass (Bromus tectorum); assay: Test B postemergence; details: scale 0 to 100
Source text: as §2, §3

[14] = test system: corn (Zea mays); assay: Test B postemergence; details: scale 0 to 100
Source text: as §2, §3

[15] = test system: large crabgrass (Digitaria sanguinalis); assay: Test B postemergence; details: scale 0 to 100
Source text: as §2, §3

[16] = test system: cocklebur (Xanthium strumarium); assay: Test B postemergence; details: scale 0 to 100
Source text: as §2, §3

[17] = test system: morningglory (Ipomoea coccinea); assay: Test B postemergence; details: scale 0 to 100
Source text: as §2, §3

[18] = test system: wheat (Triticum aestivum); assay: Test B postemergence; details: scale 0 to 100
Source text: as §2, §3

[19] = test system: deadnettle (Lamium amplexicaule); assay: Test B postemergence; details: scale 0 to 100
Source text: as §2, §3

COCCn1c(-c2cc(F)cc(F)c2)c(Cl)nc(C(=O)C2=C(O)CCCC2=O)c1=O [Compound 6, 5-chloro-6-(3,5-difluorophenyl)-3-[(2-hydroxy-6-oxo-1-cyclohexen-1-yl)carbonyl]-1-(2-methoxyethyl)-2(1H)-pyrazinone]
Plant response rating, Ducksalad ([1]; 31 g ai/ha): 30
Plant response rating, Ducksalad ([1]; 62 g ai/ha): 50
Plant response rating, Ducksalad ([1]; 125 g ai/ha): 70
Plant response rating, Ducksalad ([1]; 250 g ai/ha): 80
Plant response rating, Rice ([2]; 31 g ai/ha): 0
Plant response rating, Rice ([2]; 62 g ai/ha): 0
Plant response rating, Rice ([2]; 125 g ai/ha): 0
Plant response rating, Rice ([2]; 250 g ai/ha): 15
Plant response rating, Sedge, Umbrella ([3]; 31 g ai/ha): 60
Plant response rating, Sedge, Umbrella ([3]; 62 g ai/ha): 70
Plant response rating, Sedge, Umbrella ([3]; 125 g ai/ha): 85
Plant response rating, Sedge, Umbrella ([3]; 250 g ai/ha): 90
Plant response rating, Barnyardgrass ([4]; 31 g ai/ha, scale 0 to 100): 0
Plant response rating, Barnyardgrass ([4]; 62 g ai/ha, scale 0 to 100): 0
Plant response rating, Barnyardgrass ([4]; 125 g ai/ha, scale 0 to 100): 0
Plant response rating, Barnyardgrass ([4]; 250 g ai/ha, scale 0 to 100 (0 no effect, 100 complete control)): 50
Plant response rating, Cupgrass, Woolly ([5]; 31 g ai/ha): 90
Plant response rating, Cupgrass, Woolly ([5]; 62 g ai/ha): 100
Plant response rating, Cupgrass, Woolly ([5]; 125 g ai/ha): 100
Plant response rating, Cupgrass, Woolly ([5]; 250 g ai/ha): 100
Plant response rating, Bermudagrass ([6]; 31 g ai/ha): 5
Plant response rating, Bermudagrass ([6]; 62 g ai/ha): 45
Plant response rating, Bermudagrass ([6]; 125 g ai/ha): 75
Plant response rating, Bermudagrass ([6]; 250 g ai/ha): 95
Plant response rating, Chickweed ([7]; 31 g ai/ha): 10
Plant response rating, Chickweed ([7]; 62 g ai/ha): 25
Plant response rating, Chickweed ([7]; 125 g ai/ha): 55
Plant response rating, Chickweed ([7]; 250 g ai/ha): 75
Plant response rating, Lambsquarters ([8]; 31 g ai/ha): 80
Plant response rating, Lambsquarters ([8]; 62 g ai/ha): 98
Plant response rating, Lambsquarters ([8]; 125 g ai/ha): 100
Plant response rating, Lambsquarters ([8]; 250 g ai/ha): 100
Plant response rating, Johnsongrass ([9]; 31 g ai/ha): 80
Plant response rating, Johnsongrass ([9]; 62 g ai/ha): 80
Plant response rating, Johnsongrass ([9]; 125 g ai/ha): 85
Plant response rating, Johnsongrass ([9]; 250 g ai/ha): 100
Plant response rating, Ragweed ([10]; 31 g ai/ha): 40
Plant response rating, Ragweed ([10]; 62 g ai/ha): 60
Plant response rating, Ragweed ([10]; 125 g ai/ha): 65
Plant response rating, Ragweed ([10]; 250 g ai/ha): 98
Plant response rating, Kochia ([11]; 31 g ai/ha): 5
Plant response rating, Kochia ([11]; 62 g ai/ha): 40
Plant response rating, Kochia ([11]; 125 g ai/ha): 40
Plant response rating, Kochia ([11]; 250 g ai/ha): 45
Plant response rating, Surinam Grass ([12]; 31 g ai/ha): 75
Plant response rating, Surinam Grass ([12]; 62 g ai/ha): 75
Plant response rating, Surinam Grass ([12]; 125 g ai/ha): 85
Plant response rating, Surinam Grass ([12]; 250 g ai/ha): 98
Plant response rating, Bromegrass, Downy ([13]; 31 g ai/ha): 15
Plant response rating, Bromegrass, Downy ([13]; 62 g ai/ha): 35
Plant response rating, Bromegrass, Downy ([13]; 125 g ai/ha): 50
Plant response rating, Bromegrass, Downy ([13]; 250 g ai/ha): 60
Plant response rating, Corn ([14]; 31 g ai/ha): 45
Plant response rating, Corn ([14]; 62 g ai/ha): 45
Plant response rating, Corn ([14]; 125 g ai/ha): 65
Plant response rating, Corn ([14]; 250 g ai/ha): 80
Plant response rating, Crabgrass, Large ([15]; 31 g ai/ha): 75
Plant response rating, Crabgrass, Large ([15]; 62 g ai/ha): 85
Plant response rating, Crabgrass, Large ([15]; 125 g ai/ha): 95
Plant response rating, Crabgrass, Large ([15]; 250 g ai/ha): 98
Plant response rating, Cocklebur ([16]; 31 g ai/ha): 50
Plant response rating, Cocklebur ([16]; 62 g ai/ha): 75
Plant response rating, Cocklebur ([16]; 125 g ai/ha): 95
Plant response rating, Cocklebur ([16]; 250 g ai/ha): 100
Plant response rating, Morningglory ([17]; 31 g ai/ha): 95
Plant response rating, Morningglory ([17]; 62 g ai/ha): 100
Plant response rating, Morningglory ([17]; 125 g ai/ha): 100
Plant response rating, Morningglory ([17]; 250 g ai/ha): 100
Plant response rating, Wheat ([18]; 31 g ai/ha): 45
Plant response rating, Wheat ([18]; 62 g ai/ha): 45
Plant response rating, Wheat ([18]; 125 g ai/ha): 50
Plant response rating, Wheat ([18]; 250 g ai/ha): 60
Plant response rating, Deadnettle ([19]; 31 g ai/ha): 85
Plant response rating, Deadnettle ([19]; 62 g ai/ha): 85
Plant response rating, Deadnettle ([19]; 125 g ai/ha): 85
Plant response rating, Deadnettle ([19]; 250 g ai/ha): 100
